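Results reflect a 48-hour exposure of cells in 96-well plates to compound at five concentrations. At the GI50, growth is halved.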 Activity calls are given as the source filed them. No stated cut-off is given here; in the data, active = GI50 up to about 1.1 µM and inactive = higher.
Tests used:
Test in all cases: inhibition of tumour cell growth, NCI panel, 48 h
A498 = tested on: A498
A549 = tested on: A549
CAKI-1 = tested on: CAKI-1
HCT-116 = tested on: HCT-116
HCT-15 = tested on: HCT-15
HT-29 = tested on: HT-29
IGROV-1 = tested on: IGROV-1
K562 = tested on: K562
KM12 = tested on: KM12
LOX IMVI = tested on: LOX IMVI
MDA-MB-231 = tested on: MDA-MB-231
NCI-H23 = tested on: NCI-H23
OVCAR-4 = tested on: OVCAR-4
OVCAR-8 = tested on: OVCAR-8
SF-295 = tested on: SF-295
SK-MEL-28 = tested on: SK-MEL-28
SNB-75 = tested on: SNB-75
U-251 = tested on: U-251
UACC-62 = tested on: UACC-62

Row | SMILES | GI50 (A498) | GI50 (A549) | GI50 (CAKI-1) | GI50 (HCT-116) | GI50 (HCT-15) [µM] | GI50 (HT-29) | GI50 (IGROV-1) | GI50 (K562) | GI50 (KM12) | GI50 (LOX IMVI) | GI50 (MDA-MB-231) | GI50 (NCI-H23) | GI50 (OVCAR-4) | GI50 (OVCAR-8) | GI50 (SF-295) | GI50 (SK-MEL-28) | GI50 (SNB-75) | GI50 (U-251) | GI50 (UACC-62)
1 | BrC(=C(c1ccc(OC2CCCCO2)cc1)c1ccc(OC2CCCCO2)cc1)c1ccccc1 (configuration not stated) | > 100 µM (inactive) | > 100 µM (inactive) | > 100 µM (inactive) | > 100 µM (inactive) | > 100 | > 100 µM (inactive) | > 100 µM (inactive) | > 100 µM (inactive) | > 100 µM (inactive) | > 100 µM (inactive) | > 100 µM (inactive) | > 100 µM (inactive) | > 100 µM (inactive) | > 100 µM (inactive) | > 100 µM (inactive) | > 100 µM (inactive) | > 100 µM (inactive) | > 100 µM (inactive) | > 100 µM (inactive)
2 | CN(C)CS/C(N)=N\C(O)C(Cl)(Cl)Cl (configuration not stated) | > 100 µM (inactive) | > 100 µM (inactive) | > 100 µM (inactive) | > 100 µM (inactive) | > 100 | > 100 µM (inactive) | > 100 µM (inactive) | > 100 µM (inactive) | > 100 µM (inactive) | > 100 µM (inactive) | > 100 µM (inactive) | > 100 µM (inactive) | > 100 µM (inactive) | > 100 µM (inactive) | > 100 µM (inactive) | > 100 µM (inactive) | > 100 µM (inactive) | > 100 µM (inactive) | > 100 µM (inactive)
3 | CNc1nnc(CNc2ccc(-c3nnc(NC)n3N)cc2)n1N | > 100 µM (inactive) | > 100 µM (inactive) | > 100 µM (inactive) | > 100 µM (inactive) | > 100 | > 100 µM (inactive) | > 100 µM (inactive) | > 100 µM (inactive) | > 100 µM (inactive) | > 100 µM (inactive) | > 100 µM (inactive) | > 100 µM (inactive) | > 100 µM (inactive) | > 100 µM (inactive) | > 100 µM (inactive) | > 100 µM (inactive) | > 100 µM (inactive) | > 100 µM (inactive) | –
4 | COc1cccc2cc(C(N)=O)c(=N)oc12 | > 100 µM (inactive) | 50.5 µM (inactive) | 39.4 µM (inactive) | 28.6 µM (inactive) | 52.6 | 48.4 µM (inactive) | 35.5 µM (inactive) | > 100 µM (inactive) | 42.6 µM (inactive) | 30.7 µM (inactive) | 65.2 µM (inactive) | 48.4 µM (inactive) | 53.5 µM (inactive) | 50 µM (inactive) | – | 46.5 µM (inactive) | 63.2 µM (inactive) | 81.5 µM (inactive) | 31.3 µM (inactive)
5 | COc1cccc(C(=O)C(O)c2cccc(OC)c2OC)c1OC (configuration not stated) | > 100 µM (inactive) | > 100 µM (inactive) | > 100 µM (inactive) | > 100 µM (inactive) | > 100 | > 100 µM (inactive) | > 100 µM (inactive) | – | > 100 µM (inactive) | > 100 µM (inactive) | > 100 µM (inactive) | > 100 µM (inactive) | > 100 µM (inactive) | > 100 µM (inactive) | > 100 µM (inactive) | > 100 µM (inactive) | > 100 µM (inactive) | > 100 µM (inactive) | > 100 µM (inactive)
6 | CCOC(=O)c1c(N2CCCC2)nsc1Nc1ccccc1 | > 100 µM (inactive) | > 100 µM (inactive) | > 100 µM (inactive) | > 100 µM (inactive) | > 100 | > 100 µM (inactive) | > 100 µM (inactive) | > 100 µM (inactive) | > 100 µM (inactive) | > 100 µM (inactive) | > 100 µM (inactive) | > 100 µM (inactive) | > 100 µM (inactive) | > 100 µM (inactive) | > 100 µM (inactive) | > 100 µM (inactive) | > 100 µM (inactive) | – | –
7 | O=C(NCCc1ccc(F)cc1)c1cc(/C=C/c2cc(O)ccc2O)ccc1O | 4.06 µM (inactive) | 11.1 µM (inactive) | 3.03 µM (inactive) | 1.95 µM (inactive) | 2.26 | 14.4 µM (inactive) | 2.31 µM (inactive) | 3.03 µM (inactive) | 6.05 µM (inactive) | 3.38 µM (inactive) | 3.3 µM (inactive) | 3.28 µM (inactive) | 2.67 µM (inactive) | 3.29 µM (inactive) | 16.1 µM (inactive) | 3.21 µM (inactive) | 4.57 µM (inactive) | 2.1 µM (inactive) | 2.12 µM (inactive)
8 | COc1ccc(Nc2nc(N)c(C(=O)c3ccc(Cl)cc3)s2)cc1 | < 0.01 µM (active) | < 0.0224 µM (active) | < 0.01 µM (active) | < 0.01 µM (active) | 0.0439 | < 0.0108 µM (active) | 0.0655 µM (active) | < 0.01 µM (active) | 0.0432 µM (active) | < 0.01 µM (active) | 0.047 µM (active) | < 0.0152 µM (active) | 0.121 µM (active) | < 0.0126 µM (active) | < 0.01 µM (active) | 1.02 µM (active) | < 0.01 µM (active) | < 0.01 µM (active) | < 0.01 µM (active)
